This note sets out measurements from patent publication US8247595B2, “Organic sulfur compound and its use for controlling harmful arthropod” (Sumitomo Chemical Company, Limited, priority 2007, dated 2012).

Structures are written as SMILES.

Holding throughout (type): in vivo
The test system of test [1] is Haemaphysalis longicornis. In words: Test Example 5: treated filter paper pouch, death rate of ticks. Conditions: 48 h, filter paper treated with 100 mg/m^2, non-blood-sucking nymphal ticks, 10 ticks/group, after 2 days, read-out: death rate of the tick. As for the experimental part:
Five milligrams of any one of the present compounds (19), (23), (24), (27), (28), (29), (32), (33), (35), (38) and (39) was dissolved in 10 mL of acetone. One milliliter of the acetone solution was uniformly applied on one side of a filter paper (TOYO No. 2; 5×10 cm), so that the filter paper was treated with 100 mg/m^2 of the present compound. After drying, the filter paper was folded in two and its edges were clipped to make a pouch. Non-blood-sucking nymphal ticks (Haemaphysalis longicornis, 10 ticks/group) were put into the pouch, and the pouch was sealed with clips. After 2 days, the number of surviving ticks was examined and the death rate was calculated.
As a result, in treatments with the present compounds (19), (23), (24), (27), (28), (29), (32), (33), (35), (38) and (39), the death rate of the tick was 90%.

In test [2] the test system is Blattalla germanica. As to the kind of experiment: Test Example 3: treated filter paper with sucrose bait, death rate of Blattalla germanica. To be noted: 144 h; 500 ppm test solution, 0.7 ml on filter paper; 2 male imagoes; after 6 days. As for the experimental part:
Preparations of the present compounds (3), (4), (5), (6), (7), (9), (10), (13), (23), (24), (25), (26), (27), (28), (29), (30), (31), (32), (33), (34), (35), (38) and (39) obtained according to Formulation Example 44 were diluted so that the active ingredient concentration was 500 ppm to obtain test solutions.
A filter paper having a diameter of 5.5 cm was spread on the bottom of a polyethylene cup having a diameter of 5.5 cm and 0.7 ml of the test solution was added dropwise onto the filter paper. As a bait 30 mg of sucrose was uniformly placed on the filter paper. Into the polyethylene cup, 2 male imagoes of Blattalla germanica were released and the cup was sealed with a lid. After 6 days, the number of surviving Blattalla germanica was examined and the death rate of the pest was calculated.
As a result, in treatments with the present compounds (3), (4), (5), (6), (7), (9), (10), (13), (23), (24), (25), (26), (27), (28), (29), (30), (31), (32), (33), (34), (35), (38) and (39), the death rate of the pest was 100%.

The test system of test [3] is Musca domestica. As to the kind of experiment: Test Example 2: treated filter paper with sucrose bait, death rate of Musca domestica. To be noted: 500 ppm test solution, 0.7 ml on filter paper, 10 female imagoes, after 24 hours. On the procedure:
Preparations of the present compounds (1), (2), (3), (4), (5), (6), (7), (8), (9), (10), (13), (18), (23), (24), (25), (26), (27), (28), (29), (30), (31), (32), (33), (34), (35), (38) and (39) obtained according to Formulation Example 44 were diluted so that the active ingredient concentration was 500 ppm to obtain test solutions.
A filter paper having a diameter of 5.5 cm was spread on the bottom of a polyethylene cup having a diameter of 5.5 cm and 0.7 ml of the test solution was added dropwise onto the filter paper. As a bait 30 mg of sucrose was uniformly placed on the filter paper. Into the polyethylene cup, 10 female imagoes of Musca domestica were released and the cup was sealed with a lid. After 24 hours, the number of surviving Musca domestica was examined and the death rate of the pest was calculated.
As a result, in treatments with the present compounds (1), (2), (3), (4), (5), (6), (7), (8), (9), (10), (13), (18), (23), (24), (25), (26), (27), (28), (29), (30), (31), (32), (33), (34), (35), (38) and (39), the death rate of the pest was 70% or more.

Test [4] relates to Culex pipiens pallens. As to the kind of experiment: Test Example 4: larvae released into treated water, death rate of Culex pipiens pallens. To be noted: 24 h, active ingredient concentration 3.5 ppm in water, 20 last-instar larvae, after one day. As for the experimental part:
Preparations of the present compounds (1), (2), (3), (4), (5), (6), (7), (13), (14), (15), (16), (18), (22), (23), (24), (25), (26), (27), (28), (29), (30), (31), (32), (33), (34), (35), (36), (38) and (39) obtained according to Formulation Example 44 were diluted so that the active ingredient concentration was 500 ppm to obtain test solutions.
To 100 mL of ion-exchanged water, 0.7 ml of the test solution was added (active ingredient concentration: 3.5 ppm). Into the solution, 20 last-instar larvae of Culex pipiens pallens were released. After one day, the number of surviving Culex pipiens pallens was examined and the death rate of the pest was calculated.
As a result, in treatments with the present compounds (1), (2), (3), (4), (5), (6), (7), (13), (14), (15), (16), (18), (22), (23), (24), (25), (26), (27), (28), (29), (30), (31), (32), (33), (34), (35), (36), (38) and (39), the death rate of the pest was 90% or more.

As to `C#CC(C)CCCC(C#N)S(=O)(=O)CCC(F)(F)F` (stereo not drawn) [present compound (28), 6-methyl-2-(3,3,3-trifluoropropylsulfonyl)-7-octynenitrile], the pest or weed control at 100 mg/m2 in test [1] worked out at 90%. Also, the pest or weed control at 500 ppm in test [2] is 100%; in test [3], at least 70%. Moreover, the pest or weed control at 3.5 ppm in test [4] is at least 90%.
For `C#CCOCCC(C)(C#N)S(=O)(=O)CCC(F)(F)F` (stereo not drawn) [present compound (39), 2-methyl-4-(2-propynyloxy)-2-(3,3,3-trifluoropropylsulfonyl)butanenitrile], the pest or weed control at 100 mg/m2 in test [1] turned out to be 90%. The pest or weed control at 500 ppm in test [2] is 100%; in test [3] it was at least 70%. The pest or weed control at 3.5 ppm in test [4] is at least 90%.
`C#CCC(CC)CCC(Cl)(C(N)=O)S(=O)(=O)CCC(F)(F)F` (stereo not drawn) [present compound (32), 2-chloro-5-ethyl-2-(3,3,3-trifluoropropylsulfonyl)-7-octynamide]: the pest or weed control at 100 mg/m2 in test [1] amounted to 90%. The pest or weed control at 500 ppm was 100% in test [2] and at least 70% in test [3]. For the same compound, the pest or weed control at 3.5 ppm in test [4] is at least 90%.
The like results for `C/C(=C\CC(C#N)S(=O)(=O)CCC(F)(F)F)C(F)(F)F` (stereo not drawn) [present compound (35), 6,6,6-trifluoro-5-methyl-2-(3,3,3-trifluoropropylsulfonyl)-4-hexenenitrile] were, in that order, 90%, 100%, at least 70% and at least 90%.
Consider `C#CCC(CC)CCC(C#N)S(=O)(=O)CCC(F)(F)F` (stereo not drawn) [present compound (29), 5-ethyl-2-(3,3,3-trifluoropropylsulfonyl)-7-octynenitrile], for which, in test [1], the pest or weed control at 100 mg/m2 was found to be 90%. The values for the pest or weed control at 500 ppm in test [2] and in test [3] were 100% and at least 70%, respectively. For the same compound, the pest or weed control at 3.5 ppm in test [4] is at least 90%.
The like results for `C#CCCCCCC(C#N)S(=O)(=O)CCC(F)(F)F` (stereo not drawn) [present compound (24), 2-(3,3,3-trifluoropropylsulfonyl)-8-nonynenitrile] were, in that order, 90%, 100%, at least 70% and at least 90%.
Take `C#CCC(C)(C)CCC(C#N)S(=O)(=O)CCC(F)(F)F` (stereo not drawn) [present compound (33), 5,5-dimethyl-2-(3,3,3-trifluoropropylsulfonyl)-7-octynenitrile]: the pest or weed control at 100 mg/m2 in test [1] came out at 90%. Moreover, the pest or weed control at 500 ppm is 100% in test [2] and at least 70% in test [3]. The pest or weed control at 3.5 ppm in test [4] is at least 90%.
Regarding `C#CCCCCC(C#N)S(=O)(=O)CCC(F)(F)F` (stereo not drawn) [present compound (23), 2-(3,3,3-trifluoropropylsulfonyl)-7-octynenitrile], the pest or weed control at 100 mg/m2 in test [1] was determined as 90%. Further, the pest or weed control at 500 ppm in test [2] is 100%; in test [3], at least 70%. Moreover, the pest or weed control at 3.5 ppm in test [4] is at least 90%.
Take `C#CCOCCC(C#N)S(=O)(=O)CCC(F)(F)F` (stereo not drawn) [present compound (38), 4-(2-propyonyloxy)-2-(3,3,3-trifluoropropylsulfonyl)butanenitrile]: the pest or weed control at 100 mg/m2 in test [1] was 90%. The pest or weed control at 500 ppm in test [2] is 100%; in test [3], at least 70%. Further, the pest or weed control at 3.5 ppm in test [4] was at least 90%.
